These are literature values, as cited in patent publication US7189722B2, “Aryl spirohydantoin CGRP receptor antagonists” (Merck & Co., Inc., priority 2003, dated 2007).

Like-named read-outs stand apart in the source and are kept apart here. Ends that are not written are not given here.

Data set [1] has as its system facial blood flow. Conditions: marmoset, electrical stimulation of the trigeminal ganglion (Doods et al. 2000).
Data set [2] relates to middle meningeal artery diameter. To be noted: rats, electrical stimulation of the dura mater, prior administration (Williamson et al. 1997).
Data set [3] relates to facial blood flow. Conditions: rat, trigeminal ganglion stimulation (Escott et al. 1995).

In the case of `NCCCC[C@H](NC(=O)[C@@H](Cc1cc(Br)c(O)c(Br)c1)NC(=O)N1CCC(N2Cc3ccccc3NC2=O)CC1)C(=O)N1CCN(c2ccncc2)CC1` [BIBN4096BS], the “effect on increase of facial blood flow” value in the data set on facial blood flow [1] is “blocked”.

Take “CGRP(8-37): a peptide CGRP antagonist (VTHRLAGLLSRSGGVVKNNFVPTNVGSKAF; ends and bridges not checked; UniProt P06881 90-119, looked up, fragment)”: the “effect on increase of middle meningeal artery diameter” value in data set [2] is given as “blocked”. Moreover, in the data set with facial blood flow [3], the “effect on increase of facial blood flow” value was “inhibited”.
